# In US12644143B2, “Method for the determination of antibiotic susceptibility through stimulated Raman metabolic imaging” (priority 2017, dated 2026):
# Columns and labels:
# E. faecalis 31972 = type: cell-based
# Protocol: (§1) To test the toxicity of glucose-d7 to bacteria, E. faecalis 31970 and 31972 were cultivated in custom-made M9 medium, one with normal glucose for control and the other with glucose-d7. The growth of bacteria was monitored by optical density (OD) measurement at 600 nm for up to 22 hours (FIG. 9). […] FIG. 9A illustrates OD measurement for vancomycin susceptible enterococci cultured in M9 medium with either 2% normal glucose or 2% glucose-d7, whereas FIG. 9B illustrates OD measurement for vancomycin resistant enterococci cultured in M9 medium with either 2% normal glucose or 2% glucose-d7.
# E. faecalis 31970 = type: cell-based
# Protocol: as §1
smiles,measurement,setting,value
[2H]C(=O)[C@]([2H])(O)[C@@]([2H])(O)[C@]([2H])(O)[C@]([2H])(O)C([2H])([2H])O [glucose-d7],toxicity to bacterial growth,E. faecalis 31972,no toxicity
same,toxicity to bacterial growth,E. faecalis 31970,no toxicity
